Where “and” joins values, the source holds several entries; their conditions need not be identical. Equal values may be shown once. Each block holds one compound with its values, some of them ahead of it.
What was measured:
[1] = system: human red blood cells (RBCs); experiment: Hemolysis assay; type: cell-based; details: 0.05%, positive control
Text: As described by Karinchai et al., human peripheral blood mononuclear cells (PBMCs) and red blood cells (RBCs) were isolated from human blood samples [41]. Human blood samples of healthy subjects obtained from Maharaj Hospital, Chiang Mai, Thailand, were anonymized and kept in a heparinized tube by the laboratory. RBCs were collected and used to determined hemolysis induction by a hemolysis assay. Ficoll-Hypaque solution was used to isolate PBMCs, as described in the manufacturer’s instructions. A certificate of exemption by the Research Ethics Committee of the Faculty of Medicine, Chiang Mai University (No. EXEMPTION 8989/2022), was granted. Consent to participate was not applicable as all data were anonymized. All methods were carried out in accordance with relevant guidelines and regulations.
The hemolytic effect of the oligopeptide and its conjugated forms was determined by hemolysis assay. Briefly, the 5% RBCs suspension was mixed with various concentrations of the samples and further incubated at 37 °C for 3 h. The hemolysis induction by the compounds was measured as described previously. The hemolytic effect of each compound was interpreted using the following guidelines: 0–10% hemolysis is non-hemolysis, 10–25% hemolysis is slight hemolysis induction, and >25% hemolysis is high hemolysis induction.

Drosophila melanogaster = experiment: Somatic mutation and recombination test (SMART, wing spot test); type: in vivo; set-up: key to Statistical diagnosis vs DI (negative control), Small Single (1–2 Cells) / Statistical diagnosis vs DI (negative control), Large Single (>2 Cells) / Statistical diagnosis vs DI (negative control), Twin / Statistical diagnosis vs DI (negative control), Total Spots: + = positive; − = negative; i = inconclusive; details: 20 mM, positive control
Description: In brief, two strains of fruit flies, including mwh/mwh and ORR; flr^3/In(3LR) TM3, ri p^p sep l(3)89Aa bx^34e e Bd^S, were mated. […] After hatching, forty round wings were collected and analyzed for mutant spots (single, large, and twin spots). The statistical analysis for the wing spot test was performed as previously described. The Drosophila study was approved by the Institute of Nutrition—Mahidol University Institutional Animal Care and Use Committee (INMU-IACUC) (COA. No. INMU-IACUC 2023/01).

[2] = system: Salmonella typhimurium strain TA98; experiment: Salmonella mutation assay (Ames test), TA98; type: cell-based; details: positive mutagen
Description: (§1) Overnight bacterial cultures were mixed with various doses of test compounds with (+S9) or without (−S9) and incubated at 37 °C for 20 min. The top agar was added and then poured onto a plate of minimal glucose agar. The plates were incubated at 37 °C for 48 h. The number of revertant colonies was counted and the mutagenic index (MI) was calculated. 2-aminoanthracene (2-AA) and 2-(2-furyl)-3-(5-nitro-2-furyl)-acrylamide (AF-2) were used as positive mutagens in the presence and absence of S9.

[3] = system: Salmonella typhimurium strain TA100; experiment: Salmonella mutation assay (Ames test), TA100; type: cell-based; details: positive mutagen
Description: as §1

[4] = system: HepG2 (Human liver carcinoma cell line); experiment: SRB cytotoxicity assay, HepG2; type: cell-based
Text: (§2) HEK293 (Human embryonic kidney cell line), HepG2 (Human liver carcinoma cell line), LX-2 (Human hepatic stellate cell line), and 3T3-L1 (Murine preadipocyte cell line) cells were obtained from the American Type Culture Collection (ATCC), Bethesda, MD, USA.

[5] = system: NO production in LPS-treated RAW 264.7 macrophages; experiment: LPS-induced nitric oxide (NO)/nitrite production, Griess reaction; type: cell-based, murine; details: 100, 200, 400 µg/mL pretreatment 1 h, LPS 1 µg/mL 24 h
Description: To screen the anti-inflammation ability of the compounds, the nitrite level in the cultured medium of the treated cells was determined by the Griess reaction. RAW 264.7 macrophage cells were pretreated with various concentrations of the oligopeptide and its conjugated forms (100, 200, 400 µg/mL) for an hour and then incubated with LPS (1 µg/mL) for further 24 h at 37 °C in a 5% CO2 humidified atmosphere. The culture supernatant was collected for the Griess reagent assay as previous described. The NO production was calculated by comparison with LPS-treated controls.

3T3-L1 Mature-adipocytes = experiment: SRB cytotoxicity assay, 3T3-L1 mature adipocytes; type: cell-based, murine
Description: The pre-adipocyte 3T3-L1 cell line was differentiated to become mature adipocytes by culturing the cells to 100% confluence in 10% calf serum DMEM (CS medium), as Day 0 in a 96 well-plate. After post-confluence, the cells were incubated with the induction medium as a differentiation initiation medium (DMEM […] 1 μM DEX, 0.5 mM IBMX, 167 nM insulin, and 10% FBS) for 3 days (Days 1–3). After that, cells were cultured in a differentiation medium as an adipogenic differentiation medium (differentiation media: DMEM containing 167 nM insulin and 10% FBS) for 3 days (Days 4–6). Finally, maturation was induced in an induced-lipid accumulation medium (maturation media: DMEM containing 167 nM insulin and 10% FBS) for 6 days (Days 7–12). The mature adipocytes were then used for toxicity testing.
(§3) The cytotoxicity of the oligopeptide and its conjugated forms on HepG2, HEK293, LX-2, and RAW 264.7 cells, pre- and mature 3T3-L1 adipocytes, and hPBMCs was analyzed by a sulforhodamine (SRB) assay to obtain their non-toxic concentration for further experiments and as screening data for their in vitro safety. The cells were plated for 12 h in 96-well plates and then treated with the oligopeptide and its conjugated sugar at a concentration of 0–1000 µg/mL for 48 h. Dimethyl sulfoxide (DMSO) was used as a vehicle control (the untreated control). At the indicated time, the cells were then fixed and subjected to an SRB assay. The absorbance was measured at 510 nm by spectrophotometry (Gen5, BioTek, Winooski, VT, USA), and the cell viability was calculated as the ratio of the treatment versus untreated control. The data are represented as the mean ± standard deviation of three replicates and are expressed relative to the untreated control. The percentage of cell survival was calculated as follows:% cell survival = (Abs_extract/Abs_control) × 100

[6] = system: RAW 264.7 murine macrophage cell line; experiment: SRB cytotoxicity assay, RAW 264.7
Description: The cells were maintained in a 5% CO2 humidified atmosphere (CO2 incubator, Thermo Scientific, Waltham, MA, USA) at 37 °C and sub-cultured every 3 days.
as §3

3T3-L1 Pre-adipocyte = experiment: SRB cytotoxicity assay, 3T3-L1 pre-adipocyte; type: cell-based, murine
Text: as §2

IL-6 = IL-6 secretion by ELISA in LPS-treated RAW 264.7; type: cell-based, murine; details: 100, 200, 400 µg/mL, LPS 1 µg/mL 24 h
Description: (§4) RAW 264.7 macrophage cells were pretreated with various concentrations of the oligopeptide and its conjugated forms (100, 200, 400 µg/mL) for an hour and then incubated with LPS (1 µg/mL) for further 24 h at 37 °C in a 5% CO2 humidified atmosphere. Then, a sandwich Enzyme Link Immuno-Sorbent Assay was carried out in accordance with the manufacturer’s protocols (BioLegend ELISA MAXTM Deluxe Set, San Diego, CA, USA) to measure TNF-α or IL-6 protein levels in the condition medium.

iNOS = iNOS protein level by immunoblotting in LPS-treated RAW 264.7; type: cell-based, murine; details: 100, 200, 400 µg/mL, LPS 1 µg/mL 24 h
Description: (§5) RAW 264.7 macrophage cells were pretreated with various concentrations of the oligopeptide and its conjugated forms (100, 200, 400 µg/mL) for an hour and then incubated with LPS (1 µg/mL) for a further 24 h (at 37 °C in a 5% CO2 humidified atmosphere). The cells were then collected to investigate the iNOS and COX-2 protein levels. Cell lysate was prepared to obtain the protein samples. The samples were subjected to 10% sodium dodecyl sulfate polyacrylamide gel electrophoresis (SDS-PAGE). The separated proteins were electrically transferred to a nitrocellulose membrane. The target proteins were probed with specific antibodies, including anti-COX-2 antibody (Cell signaling, Danvers, MA, USA), anti-iNOS antibody (Merck, Rahway, NJ, USA), and anti-β-actin antibody (Sigma, St. Louis, MO, USA). Protein detection was performed using a chemiluminescence reagent (Bio-Rad Laboratories, Watford, UK).

[7] = system: HEK293 (Human embryonic kidney cell line); experiment: SRB cytotoxicity assay, HEK293; type: cell-based
Text: as §2

[8] = system: LX-2 (Human hepatic stellate cell line); experiment: SRB cytotoxicity assay, LX-2; type: cell-based
Text: as §2

COX-2 = COX-2 protein level by immunoblotting in LPS-treated RAW 264.7; type: cell-based, murine; details: 100, 200, 400 µg/mL, LPS 1 µg/mL 24 h
Description: as §5

TNF-α = TNF-α secretion by ELISA in LPS-treated RAW 264.7; type: cell-based, murine; details: 400 µg/mL, LPS-stimulated cells
Description: as §4

Compound: triton x-100
% Hemolysis (n = 5) [1]: 100 ± 0.00%

Statistical diagnosis vs DI (negative control), Large Single (>2 Cells) (Drosophila melanogaster): +
Statistical diagnosis vs DI (negative control), Small Single (1–2 Cells) (Drosophila melanogaster): +
Statistical diagnosis vs DI (negative control), Total Spots (Drosophila melanogaster): +
Statistical diagnosis vs DI (negative control), Twin (Drosophila melanogaster): +
total mutant spot, fold greater than the negative control (Drosophila melanogaster): 15 fold
Frequency of Mutant Spots per Individual (Number of Spots), Large Single (>2 Cells) (Drosophila melanogaster; 40 wings): 3.40 (136)
Frequency of Mutant Spots per Individual (Number of Spots), Small Single (1–2 Cells) (Drosophila melanogaster; 40 wings): 6.10 (244)
Frequency of Mutant Spots per Individual (Number of Spots), Total Spots (Drosophila melanogaster; 40 wings): 10.18 and 10.18 (407)
Frequency of Mutant Spots per Individual (Number of Spots), Twin (Drosophila melanogaster; 40 wings): 0.68 (27)
Compound: CCOC(N)=O [urethane]

Compound: Nc1ccc2cc3ccccc3cc2c1 [2-AA, 2-aminoanthracene]
His^+ Revertant Colonies per Plate ([2]; TA98, +S9, 0.5 µg per plate): 325.8 ± 16.2
His^+ Revertant Colonies per Plate ([3]; TA100, +S9, 0.5 µg per plate): 599.7 ± 8.7

Compound: NC(=O)C(=Cc1ccc([N+](=O)[O-])o1)c1ccco1 [AF-2, 2-(2-furyl)-3-(5-nitro-2-furyl)-acrylamide]
His^+ Revertant Colonies per Plate ([2]; TA98, −S9, 0.1 µg per plate): 293.0 ± 10.3
His^+ Revertant Colonies per Plate ([3]; TA100, −S9, 0.01 µg per plate): 527.3 ± 15.0

Compound: O=C(CO)[C@H](O)[C@H](O)[C@H](O)CO [AL, D-allulose]
IC20 [4]: >1000 mg/L
IC50 ([4]; HepG2, 48 h, SRB): >1000 mg/L
inhibition of LPS-induced NO production [5]: did not inhibit
IC20 (3T3-L1 Mature-adipocytes): >1000 mg/L
IC50 (3T3-L1 Mature-adipocytes; 3T3-L1 Mature-adipocytes, 48 h, SRB): >1000 mg/L
IC20 [6]: >1000 mg/L
IC50 ([6]; RAW 264.7, 48 h, SRB): >1000 mg/L
IC20 (3T3-L1 Pre-adipocyte): >1000 mg/L
IC50 (3T3-L1 Pre-adipocyte; 3T3-L1 Pre-adipocyte, 48 h, SRB): >1000 mg/L
effect on level of IL-6 (IL-6): did not alter
effect on iNOS protein level (iNOS): did not affect
IC20 [7]: >1000 mg/L
IC50 ([7]; HEK293, 48 h, SRB): >1000 mg/L
IC20 [8]: >1000 mg/L
IC50 ([8]; LX-2, 48 h, SRB): >1000 mg/L
effect on COX-2 protein level (COX-2): did not affect
effect on TNF-α level (TNF-α): significantly decreased
